Marks after values point to notes of the source that are not given here.
Experiment: logP determination via retention times, calibrated with unbranched alkan-2-ones
Format: physicochemical
Conditions: HPLC on reversed-phase C 18, EEC Directive 79/831 Annex V.A8; method *: 40° C., 0.1% aqueous formic acid and acetonitrile, linear gradient 10% to 95% acetonitrile

Compound | logP
CC1CC(C)CN(c2cccc(Nc3ncc(Cl)c(NC4CC4)n3)c2)C1 (centres unmarked) [compound 528] | 2.46*
Cc1cc(Nc2ncc(Cl)c(NCC3CC3)n2)ccc1O [compound 558] | 1.51*
FC(F)(F)c1cnc(Nc2cccc(N3CCCC3)c2)nc1NC1CC1 [compound 564] | 3.55*

Same assay, conditions: HPLC on reversed-phase C18, method *: 40° C., 0.1% aqueous formic acid and acetonitrile, linear gradient 10% to 95% acetonitrile

Compound | logP
CS(=O)(=O)Nc1ccc(Nc2ncc(Cl)c(NCC3CC3)n2)cc1 [compound 697] | 1.51*
O=C1CCCCN1c1cccc(Nc2ncc(Br)c(NC3CC3)n2)c1 [compound 733] | 1.55*
CCc1ccc(Nc2ncc(Cl)c(NC3CC3)n2)cc1 [compound 951] | 2.13*
FC(F)(F)c1ccc(Nc2ncc(Br)c(NC3CC3)n2)cc1 [compound 740] | 3.33*
O=C(c1ccc(Nc2ncc(C(F)(F)F)c(NCC3CC3)n2)cc1)N1CCCCC1 [compound 704] | 3.04*
Clc1cnc(Nc2ccc(C3CCCCC3)cc2)nc1NC1CC1 [compound 952] | 3.29*
CSc1ccc(Nc2ncc(Cl)c(NCC3CC3)n2)cc1 [compound 674] | 2.18*
CC(=O)N(C)c1ccc(Nc2ncc(Cl)c(NCC3CC3)n2)cc1 [compound 671] | 1.58*
Brc1cnc(Nc2ccccc2)nc1NC1(COc2ccccc2)CC1 [compound 932] | 3.03*
Oc1ccc(Nc2ncc(Cl)c(NCC3CC3)n2)cc1 [compound 680] | 1.36*
COCC(C)Nc1ccc(Nc2ncc(Cl)c(NC3CC3)n2)cc1 (centres unmarked) [Example 110] | 2.03*
N#Cc1ccccc1Nc1ncc(Cl)c(NC2CC2)n1 [compound 881] | 0.85*
CCCCC(=O)Oc1ccc(Nc2ncc(Cl)c(NC3CC3)n2)cc1 [compound 106] | 3.68*
CC1COC(=O)N1c1ccc(Nc2ncc(Br)c(NCC3CC3)n2)cc1 (centres unmarked) [compound 118] | 1.72*
N#Cc1cc(Nc2ncc(Cl)c(NC3CC3)n2)c(F)cc1Cl [compound 936] | 3.33*
OC(c1cccc(Nc2ncc(C(F)(F)F)c(NCC3CC3)n2)c1)C(F)(F)F (centres unmarked) [compound 667] | 2.82*
CC(C)c1ccccc1Nc1ncc(Cl)c(NC2CC2)n1 [compound 872] | 1.96*
CCOC(=O)c1cccc(Nc2ncc(Br)c(NC3CC3)n2)c1 [compound 750] | 2.4*
Clc1cnc(Nc2ccccc2Oc2ccccc2)nc1NC1CC1 [compound 901] | 3.14*
Brc1cnc(Nc2ccc(OCCN3CCCCC3)cc2)nc1NC1CC1 [compound 117] | 1.07*

Same assay, conditions: HPLC on reversed-phase C18, method *: 40° C.; mobile phase 0.1% aqueous formic acid and acetonitrile; linear gradient 10% to 95% acetonitrile

Compound | logP
C#Cc1cccc(Nc2ncc(Br)c(NC3CC3)n2)c1 [compound 340] | 2.41*
Clc1cccc(Nc2ncc(Cl)c(NC3(c4ccccc4Cl)CC3)n2)c1 [compound 319] | 5.18*
CC(C)(C)OC(=O)NCc1ccc(Nc2ncc(Br)c(NC3CC3)n2)cc1 [compound 329] | 2.02*
CC(=O)N(C)c1ccc(Nc2ncc(Br)c(NC3CC3)n2)cc1 [compound 349] | 1.54*
CCC(=O)c1cccc(Nc2ncc(Cl)c(NC3CC3)n2)c1 [compound 304] | 2.25*
CCCOc1cccc(Nc2ncc(Br)c(NC3CC3)n2)c1 [compound 336] | 2.83*
Clc1ccc(Nc2ncc(Cl)c(NC3CC3)n2)cc1 [compound 285] | 2.54*

Same assay, conditions: HPLC on reversed-phase C18 column (EEC Directive 79/831 Annex V.A8); method **: 43° C.; 0.1% aqueous phosphoric acid and acetonitrile; linear gradient 10% to 95% acetonitrile

Compound | logP
CSc1cccc(Nc2ncc(C(F)(F)F)c(NC3CC3)n2)c1 [compound 266] | 3.49**

Same assay, conditions: HPLC on reversed-phase C18 column (EEC Directive 79/831 Annex V.A8); method *: 40° C.; 0.1% aqueous formic acid and acetonitrile; linear gradient 10% to 95% acetonitrile

Compound | logP
CC(C)Sc1cccc(Nc2ncc(Cl)c(NC3CC3)n2)c1 [compound 264] | 3.18*
O=C1CCCN1c1cc(Nc2ncc(C(F)(F)F)c(NC3CC3)n2)ccc1F [compound 265] | 2.33*
CSc1cccc(Nc2ncc(C(F)(F)F)c(NC3CC3)n2)c1 [compound 266] | 3.29*;
COC(c1cccc(Nc2ncc(Cl)c(NC3CC3)n2)c1)C(F)(F)F (centres unmarked) [compound 270] | 2.69*
COCc1cccc(Nc2ncc(Br)c(NC3CC3)n2)c1 [compound 269] | 1.8*

Same assay, conditions: HPLC reversed-phase C 18, EEC Directive 79/831 Annex V.A8; method *: 40° C., 0.1% aqueous formic acid and acetonitrile, linear gradient 10% to 95% acetonitrile

Compound | logP
CC(=O)Cc1cccc(Nc2ncc(Cl)c(NCC3CC3)n2)c1 [compound 781] | 1.67*
CCc1cccc(Nc2ncc(Cl)c(NCC3CC3)n2)c1 [compound 776] | 2.37*
Cc1ccc(Nc2ncc(Cl)c(NC3CC3)n2)cc1CC#N [compound 819] | 1.79*
CSC(C)c1cccc(Nc2ncc(Br)c(NC3CC3)n2)c1 (centres unmarked) [compound 811] | 2.63*
N#CCc1ccc(Nc2ncc(Cl)c(NC3CC3)n2)cc1 [compound 832] | 1.59*
CSC(C)c1cccc(Nc2ncc(C(F)(F)F)c(NC3CC3)n2)c1 (centres unmarked) [compound 825] | 3.81*
O=C1CCCCN1c1cccc(Nc2ncc(F)c(NC3CC3)n2)c1 [compound 804] | 1.16*

Same assay, conditions: method **: HPLC reversed-phase C 18, 43° C., 0.1% aqueous phosphoric acid and acetonitrile, linear gradient 10% to 95% acetonitrile

Compound | logP
O=S(=O)(Nc1ccccc1)c1ccc(Nc2ncc(Cl)c(NC3CC3)n2)cc1 [compound 27] | 2.56**
CCOC1(Nc2nc(Nc3ccccc3)ncc2Cl)CC1.Cl [compound 38] | 2.23**
Cc1cc(C)nc(NS(=O)(=O)c2ccc(Nc3ncc(Cl)c(NC4CC4)n3)cc2)n1 [compound 26] | 1.72**
C=CCNS(=O)(=O)c1ccc(Nc2ncc(Cl)c(NC3CC3)n2)cc1 [compound 31] | 2.09**
NS(=O)(=O)c1cc(Nc2ncc(Cl)c(NCC3CC3)n2)cc(C(F)(F)F)c1 [Example 18] | 2.63**

Same assay, conditions: method **: HPLC reversed-phase C 18, temperature 43° C.; mobile phase 0.1% aqueous phosphoric acid and acetonitrile; linear gradient 10% to 95% acetonitrile

Compound | logP
Brc1cnc(Nc2cccc(N3CCCC3)c2)nc1NC1CC1 [compound 621] | 2.38**
CNC(=O)Oc1cccc(Nc2ncc(C(F)(F)F)c(NC3CC3)n2)c1 [compound 659] | 2.13**

Same assay, conditions: method **: HPLC, reversed-phase C 18, 43° C., mobile phase 0.1% aqueous phosphoric acid and acetonitrile, linear gradient from 10% to 95% acetonitrile

Compound | logP
N#Cc1cc(Nc2ncc(Cl)c(NC3CC3)n2)cc(C(F)(F)F)c1 [compound 1017] | 3.69**

Same assay, conditions: method *: HPLC reversed-phase C18, 40° C., 0.1% aqueous formic acid and acetonitrile, linear gradient 10% to 95% acetonitrile

Compound | logP
CC(=O)Nc1ccc(Nc2ncc(Cl)c(NC3CC3)n2)cc1.Cc1ccc(S(=O)(=O)O)cc1 [compound 434] | 1.02*
O=C1CCCCN1Cc1cccc(Nc2ncc(Cl)c(NC3CC3)n2)c1 [compound 373] | 1.58*
CCCSc1cccc(Nc2ncc(Cl)c(NC3CC3)n2)c1 [compound 437] | 3.33*
CCCCCCCCSc1cccc(Nc2ncc(Cl)c(NC3CC3)n2)c1.Cc1ccc(S(=O)(=O)O)cc1 [compound 442] | 6.16*
CC(C)(C)NC(=O)c1ccc(Nc2ncc(Br)c(NCC3CC3)n2)cc1 [compound 426] | 2.3*
CNC(=O)Oc1cccc(Nc2ncc(Br)c(NCC3CC3)n2)c1 [compound 429] | 1.68*
CSc1cccc(Nc2ncc(Cl)c(NC3CC3)n2)c1 [Example 74] | 2.21*
CC(C)CCSc1cccc(Nc2ncc(Cl)c(NC3CC3)n2)c1.Cc1ccc(S(=O)(=O)O)cc1 [compound 441] | 4.24*
COc1cc(Nc2ncc(Cl)c(NC3CC3)n2)cc(OC)c1 [Example 3] | 1.91*
CC(C)(C)C(=O)Nc1cccc(Nc2ncc(Cl)c(NC3CC3)n2)c1 [Example 91] | 1.98*
O=C1Cc2cc(Nc3ncc(Cl)c(NC4CC4)n3)ccc2N1 [Example 56] | 1.05*
FC(F)(F)Sc1ccc(Nc2ncc(Cl)c(NC3CC3)n2)cc1 [compound 376] | 3.72*
CN(C)C(=O)c1ccc(Nc2ncc(Br)c(NCC3CC3)n2)cc1 [compound 452] | 1.66*;
Cc1ccc(Nc2ncc(Br)c(NC3CC3)n2)cc1O [compound 366] | 1.46*
CSc1cc(Nc2ncc(Br)c(NCC3CC3)n2)ccc1C [compound 459] | 2.58*

Same assay, conditions: method *: HPLC reversed-phase C 18, temperature 40° C.; mobile phase 0.1% aqueous formic acid and acetonitrile; linear gradient 10% to 95% acetonitrile

Compound | logP
CSc1ccc(Nc2ncc(F)c(NC3CC3)n2)cc1Cl [compound 579] | 2.13*
CCOC(=O)Nc1cccc(Nc2ncc(F)c(NC3CC3)n2)c1 [compound 596] | 1.53*
CC(=O)Nc1ccc(Nc2ncc(F)c(NC3CC3)n2)cc1Cl [compound 580] | 1.32*
O=C1CCCCN1c1ccc(Nc2ncc(Cl)c(NC3CC3)n2)cc1 [compound 569] | 1.47*
CC(=O)c1cccc(Nc2ncc(F)c(NC3CC3)n2)c1 [compound 591] | 1.45*
CN(C)C(=O)c1cccc(Nc2ncc(C#N)c(NC3CC3)n2)c1 [compound 614] | 1.83*
O=S(=O)(c1cccc(Nc2ncc(F)c(NC3CC3)n2)c1)N1CCCCC1 [compound 588] | 1.61*
O=C1NC(=O)C(c2ccc(Nc3ncc(C(F)(F)F)c(NC4CC4)n3)cc2)N1 (centres unmarked) [compound 658] | 1.58*
CNC(=O)Oc1cccc(Nc2ncc(C(F)(F)F)c(NC3CC3)n2)c1 [compound 659] | 2.06*;

Same assay, conditions: method *: HPLC, reversed-phase C 18, 40° C., mobile phase 0.1% aqueous formic acid and acetonitrile, linear gradient from 10% to 95% acetonitrile

Compound | logP
COCCOc1cccc(Nc2ncc(C(F)(F)F)c(NC3CC3)n2)c1 [compound 1041] | 2.78*
COC(=O)c1cc(Nc2ncc(Cl)c(NC3CC3)n2)cc(C(=O)OC)c1 [compound 1001] | 2.46*
Fc1ccc(Nc2ncc(Cl)c(NC3CC3)n2)cc1OC(F)F [compound 1053] | 2.62*

Same assay, conditions: pH 2.3; read-out: logP (pH2.3)

Compound | chromatographic logP
Clc1ncc(I)c(NC2CC2)n1 [2-chloro-N-cyclopropyl-5-iodopyrimidine-4-amine] | 2.19
COc1cnc(Cl)nc1NC1CC1 [2-chloro-N-cyclopropyl-5-methoxypyrimidine-4-amine] | 1.38
